Measurements: the CheMixHub viscosity set

Test: xn = mol fraction of the nth substance listed

CCNc1ccccc1 + CCCCCCO
viscosity [mPa·s], 101 kPa
Conditions	303.15 K	308.15 K	313.15 K
x1 = 0.0815	3.513	3.35	3.189
x1 = 0.1812	3.243	3.069	2.9
x1 = 0.2501	3.07	2.889	2.719
x1 = 0.3121	2.922	2.736	2.565
x1 = 0.3956	2.737	2.546	2.374
x1 = 0.4652	2.594	2.399	2.227
x1 = 0.5285	2.47	2.273	2.101
x1 = 0.6124	2.318	2.119	1.947
x1 = 0.6758	2.21	2.01	1.84
x1 = 0.7415	2.105	1.904	1.735
x1 = 0.8012	2.014	1.813	1.647
x1 = 0.8652	1.922	1.722	1.557
x1 = 0.9114	1.857	1.659	1.496

ClCCCl + CCCCCCO
303.15 K, 101 kPa
Conditions	viscosity [mPa·s]
x1 = 0.1515	2.572
x1 = 0.302	1.864
x1 = 0.5095	1.235
x1 = 0.6031	1.047
x1 = 0.7397	0.9
x1 = 0.9017	0.73

COCC(C)OCC(C)OC (stereo unspecified) + CCCCCO
Conditions	viscosity [mPa·s]
298.15 K, 101 kPa, x1 = 0.4941	1.345

ClCCCl + CCCCCO
303.15 K, 101 kPa
Conditions	viscosity [mPa·s]
x1 = 0.1509	2.002
x1 = 0.3002	1.472
x1 = 0.4539	1.111
x1 = 0.6003	0.906
x1 = 0.7472	0.777
x1 = 0.8986	0.706

ClCCl + CCCCCO
298.15 K, 101 kPa
Conditions	viscosity [mPa·s]
x2 = 0.0966	0.7741
x2 = 0.194	1.097
x2 = 0.2921	1.391
x2 = 0.3909	1.669
x2 = 0.4905	1.93
x2 = 0.5908	2.182
x2 = 0.6919	2.437
x2 = 0.7938	2.688
x2 = 0.8965	2.927

ClCCl + CCCCN
viscosity [mPa·s], 101 kPa
Conditions	x2 = 0.102	x2 = 0.1371	x2 = 0.2306	x2 = 0.3081	x2 = 0.435	x2 = 0.5159	x2 = 0.5926	x2 = 0.6971	x2 = 0.8192	x2 = 0.9041
293.15 K	0.441	0.443	0.448	0.452	0.46	0.466	0.471	0.477	0.486	0.493
298.15 K	0.418	0.421	0.425	0.427	0.434	0.439	0.443	0.446	0.454	0.457
303.15 K	0.401	0.403	0.406	0.409	0.414	0.417	0.42	0.424	0.429	0.433
308.15 K	0.385	0.386	0.39	0.392	0.395	0.397	0.4	0.402	0.405	0.408

CCC(C)Br (stereo unspecified) + CCCCO
viscosity [mPa·s], 101.3 kPa
Conditions	x1 = 0.1031	x1 = 0.2031	x1 = 0.3016	x1 = 0.4044	x1 = 0.5054	x1 = 0.5983	x1 = 0.7019	x1 = 0.8026	x1 = 0.9
298.15 K	2.035	1.634	1.325	1.097	0.9278	0.8012	0.7037	0.6308	0.5835
313.15 K	1.426	1.174	0.9794	0.8345	0.7206	0.6389	0.5736	0.523	0.4876

CCNc1ccccc1 + CCCCO
303.15 K, 101 kPa
Conditions	viscosity [mPa·s]
x1 = 0.0702	2.203
x1 = 0.1296	2.187
x1 = 0.1901	2.173
x1 = 0.2568	2.154
x1 = 0.3204	2.132
x1 = 0.3725	2.114
x1 = 0.4414	2.085
x1 = 0.5136	2.047
x1 = 0.5841	2.007
x1 = 0.6525	1.97
x1 = 0.7225	1.926
x1 = 0.7954	1.873
x1 = 0.8741	1.819

ClCCCl + CCCCO
viscosity [mPa·s], 101 kPa
Conditions	x2 = 0.0969	x2 = 0.2052	x2 = 0.3178	x2 = 0.4683	x2 = 0.5618	x2 = 0.6768	x2 = 0.856
303.15 K	0.7121	0.7449	0.8081	0.9418	1.062	1.272	1.744
313.15 K	0.6205	0.6427	0.692	0.7892	0.8734	1.036	1.378
323.15 K	0.5584	0.571	0.6061	0.6791	0.7447	0.8711	1.123

ClCCl + CCCCO
303.15 K, 101.3 kPa
Conditions	viscosity [mPa·s]
x2 = 0.036	0.4023
x2 = 0.0601	0.4082
x2 = 0.1127	0.4291
x2 = 0.1672	0.4596
x2 = 0.3142	0.5767
x2 = 0.4391	0.7209
x2 = 0.5585	0.9132
x2 = 0.6635	1.143
x2 = 0.7658	1.428
x2 = 0.8429	1.684
x2 = 0.9	1.89
x2 = 0.9566	2.105

CC(=O)O + CCCCOC(C)=O
viscosity [mPa·s], 101 kPa
Conditions	298.15 K	313.15 K
x2 = 0.1025	1.003	0.811
x2 = 0.2035	0.947	0.767
x2 = 0.2989	0.887	0.724
x2 = 0.3998	0.842	0.685
x2 = 0.4907	0.811	0.671
x2 = 0.6449	0.77	0.63
x2 = 0.8015	0.729	0.599
x2 = 0.8705	0.726	0.589
x2 = 0.8886	0.723	0.592
x2 = 0.9096	0.712	0.583
x2 = 0.9315	0.698	0.58
x2 = 0.9427	0.698	0.58
x2 = 0.9605	0.696	0.574
x2 = 0.9779	0.686	0.563

CCNc1ccccc1 + CCCCOCCO
viscosity [mPa·s], 101.3 kPa
Conditions	x2 = 0.1017	x2 = 0.2027	x2 = 0.3026	x2 = 0.398	x2 = 0.5004	x2 = 0.5947	x2 = 0.701	x2 = 0.7971	x2 = 0.8933
298 K	2.077	2.172	2.259	2.361	2.486	2.573	2.686	2.758	2.786
303 K	1.774	1.855	1.929	2.039	2.14	2.214	2.313	2.38	2.404
308 K	1.59	1.662	1.725	1.801	1.889	1.961	2.048	2.111	2.145
313 K	1.43	1.498	1.537	1.615	1.693	1.746	1.824	1.883	1.91
318 K	1.298	1.358	1.383	1.443	1.51	1.552	1.616	1.674	1.696

ClCCl + CCCCOCCO
298.15 K, 101.3 kPa
Conditions	viscosity [mPa·s]
x1 = 0.0185	2.77
x2 = 0.0035	0.408
x2 = 0.0112	0.413
x2 = 0.0303	0.43
x2 = 0.0521	0.451
x2 = 0.1008	0.503
x2 = 0.1533	0.578
x2 = 0.2175	0.671
x2 = 0.293	0.807
x2 = 0.362	0.943
x2 = 0.4346	1.11
x2 = 0.5707	1.482
x2 = 0.6642	1.753
x2 = 0.7875	2.148
x2 = 0.9049	2.525

ClCCl + CCCCn1cc[n+](C)c1.F[B-](F)(F)F
Conditions	viscosity [mPa·s]
298.15 K, 101 kPa, x1 = 0.1	84.5

ClCCl + CCCCn1cc[n+](C)c1.F[P-](F)(F)(F)(F)F
298.15 K, 101 kPa
Conditions	viscosity [mPa·s]
x1 = 0.2451	88.7
x1 = 0.6462	9.51

COCC(C)OCC(C)OC (stereo unspecified) + CCCO
298.15 K, 101 kPa
Conditions	viscosity [mPa·s]
x1 = 0.0008	1.955
x1 = 0.0409	1.775

ClCCCl + CCCO
101 kPa
Conditions	viscosity [mPa·s]
293.15 K, x2 = 0.9052	1.795
298.15 K, x2 = 0.614	1.035
303.15 K, x2 = 0.1182	0.6969
303.15 K, x2 = 0.2163	0.6888
303.15 K, x2 = 0.5579	0.9007
303.15 K, x2 = 0.6721	1.034
303.15 K, x2 = 0.836	1.328
313.15 K, x2 = 0.1182	0.6089
313.15 K, x2 = 0.2163	0.6167
313.15 K, x2 = 0.326	0.6293
313.15 K, x2 = 0.5579	0.7563
313.15 K, x2 = 0.6721	0.8514
313.15 K, x2 = 0.836	1.071
323.15 K, x2 = 0.1182	0.5483
323.15 K, x2 = 0.2163	0.5488
323.15 K, x2 = 0.326	0.5542
323.15 K, x2 = 0.5579	0.6484
323.15 K, x2 = 0.6721	0.721
323.15 K, x2 = 0.836	0.8872

ClCCl + CCCO
Conditions	viscosity [mPa·s]
298.15 K, 101 kPa, x2 = 0.05	0.48
298.15 K, 101 kPa, x2 = 0.1	0.535
298.15 K, 101 kPa, x2 = 0.1002	0.44
298.15 K, 101 kPa, x2 = 0.15	0.588
298.15 K, 101 kPa, x2 = 0.1991	0.487
298.15 K, 101 kPa, x2 = 0.2	0.639
298.15 K, 101 kPa, x2 = 0.2496	0.496
298.15 K, 101 kPa, x2 = 0.25	0.689
298.15 K, 101 kPa, x2 = 0.2978	0.528
298.15 K, 101 kPa, x2 = 0.3	0.74
298.15 K, 101 kPa, x2 = 0.35	0.792
298.15 K, 101 kPa, x2 = 0.3938	0.6
298.15 K, 101 kPa, x2 = 0.4	0.846
298.15 K, 101 kPa, x2 = 0.45	0.904
298.15 K, 101 kPa, x2 = 0.4603	0.668
298.15 K, 101 kPa, x2 = 0.498	0.716
298.15 K, 101 kPa, x2 = 0.5	0.966
298.15 K, 101 kPa, x2 = 0.55	1.032
298.15 K, 101 kPa, x2 = 0.589	0.843
298.15 K, 101 kPa, x2 = 0.6	1.104
298.15 K, 101 kPa, x2 = 0.65	1.182
298.15 K, 101 kPa, x2 = 0.6943	1.043
298.15 K, 101 kPa, x2 = 0.7	1.266
298.15 K, 101 kPa, x2 = 0.75	1.357
298.15 K, 101 kPa, x2 = 0.7977	1.289
298.15 K, 101 kPa, x2 = 0.8	1.455
298.15 K, 101 kPa, x2 = 0.85	1.56
298.15 K, 101 kPa, x2 = 0.8955	1.57
298.15 K, 101 kPa, x2 = 0.9	1.673
298.15 K, 101 kPa, x2 = 0.95	1.794
303.15 K, 101.3 kPa, x2 = 0.0434	0.401
303.15 K, 101.3 kPa, x2 = 0.0863	0.4085
303.15 K, 101.3 kPa, x2 = 0.1371	0.423
303.15 K, 101.3 kPa, x2 = 0.1943	0.445
303.15 K, 101.3 kPa, x2 = 0.2863	0.4936
303.15 K, 101.3 kPa, x2 = 0.3859	0.5655
303.15 K, 101.3 kPa, x2 = 0.4983	0.6748
303.15 K, 101.3 kPa, x2 = 0.5806	0.7794
303.15 K, 101.3 kPa, x2 = 0.7402	1.059
303.15 K, 101.3 kPa, x2 = 0.828	1.257
303.15 K, 101.3 kPa, x2 = 0.9016	1.447
303.15 K, 101.3 kPa, x2 = 0.9307	1.606
303.15 K, 101.3 kPa, x2 = 0.9459	1.57
303.15 K, 101.3 kPa, x2 = 0.95	1.643
